From patent US20140039031A1, “PHARMACEUTICAL FORMULATIONS OF ACETYL-11-KETO-B-BOSWELLIC ACID, DIINDOLYLMETHANE, AND CURCUMIN FOR PHARMACEUTICAL APPLICATIONS” (Dispersol Technologies. LLC, priority 2011, published 2014)

Experiments:
[1] = Solubility enhancement of AKBA by surfactants (UV-Visible); assay type: physicochemical; settings: pH 6.8 phosphate buffer; 100 mg AKBA in 10 mL; shaken at least 72 hours at 37° C.; 0.20 micron filter
Protocol: Evaluation of Solubility Enhancement Capability of Surfactants for Solubilizing AKBA.
100 mg of AKBA was placed in a 10 mL cuvette, followed by the desired amount of surfactant to be studied to give the desired ratio of materials. Powder surfactants were measured directly into the cuvette in the amounts of 10 mg, 25 mg and 50 mg. Liquid surfactants were added by making a solution of 1.25 gm of surfactant in 250 ml of buffer, and then adding 2 ml, 5 ml, or 10 ml of the buffer solution to add 10 mg, 25 mg and 50 mg of the surfactant. A pH 6.8 phosphate buffer was added as needed to bring the volume up to 10 mL. After all material was added to the cuvette, the cuvette was sealed, sonicated for 2 hours on two separate occasions and then shaken for at least 72 hours at 37° C. The resulting material was filtered through a 0.20 micron filter and analyzed by UV-Visible spectroscopy to determine the AKBA content.

[2] = Solubility enhancement of AKBA by polymer carriers (thermal binders) (UV-Visible); assay type: physicochemical; settings: pH 6.8 phosphate buffer; 20 mg AKBA in 10 mL; shaken at least 72 hours at 37° C.; 0.45 micron filter
Protocol: Evaluation of Solubility Enhancement Capability of Polymer Carriers (Thermal Binders) for Solubilizing AKBA.
20 mg of AKBA was placed in a 10 mL cuvette, followed by the desired amount of polymer carriers to be studied to give the desired ratio of materials. A pH 6.8 phosphate buffer was added as needed to bring the volume up to 10 mL. After all material was added to the cuvette, the cuvette was sealed, sonicated for 2 hours on two separate occasions and then shaken for at least 72 hours at 37° C. The resulting material was filtered through a 0.45 micron filter and analyzed by UV-Visible spectroscopy to determine the AKBA content.

[3] = Solubility enhancement of AKBA by combination of polymer carriers and surfactants (UV-Visible); assay type: physicochemical; settings: pH 6.8 phosphate buffer; 20 mg AKBA in 10 mL; shaken at least 72 hours at 37° C.; 0.45 micron filter
Protocol: Evaluation of Solubility Enhancement Capability of the Combination of Polymer Carriers (Thermal Binders) and Surfactants for Solubilizing AKBA.
20 mg of AKBA was placed in a 10 mL cuvette, followed by the desired amount of polymer carriers and/or surfactants to be studied to give the desired ratio of materials. A pH 6.8 phosphate buffer was added as needed to bring the volume up to 10 mL. […] The resulting material was filtered through a 0.45 micron filter and analyzed by UV-Visible spectroscopy to determine the AKBA content.

[4] = Dissolution testing under non-sink conditions (USP XXIX method A enteric dissolution test); assay type: physicochemical; settings: pH 6.8 buffer, read from FIG. 6
Protocol: Dissolution tests were performed with a dissolution apparatus (VK 7000 Dissolution Tester with a VK 8000 Autosampler). The testing was carried out according to a published method (USP XXIX method A enteric dissolution test); non-sink conditions were maintained throughout the testing using 1 L of final neutral media. The solution of 0.1N HCl (pH of 1.2) with a formulation present was stirred at 50 rpm for 2 hours and then the solution was converted to 0.2M Phosphate Buffer (pH of 6.8) and stirring continued up to 12 hours. At times of 60, 120, 125, 135, 150, 165, 180, 210, 240, 300, 360, 480, and 720 minutes, three×5 mL samples were removed and analyzed for soluble AKBA.

[5] = Bioavailability (pharmacokinetic) study of AKBA formulations, oral gavage; assay type: in vivo, Sprague-Dawley rats; settings: rat, dose equivalent to 50 mg/kg AKBA, * statistically significant
Protocol: A study was performed to evaluate the pharmacokinetic parameters of AKBA compositions. For the study, adult male Sprague-Dawley rats (275-300 grams, 63-67 days) were caged individually and maintained on a normal rodent chow diet with free access to water. Rats were randomly divided into groups of 4 rats with each group receiving one formulation. Prior to dosing, each formulation was reconstituted in deionised water. The formulations were administered as a dose equivalent to 50 mg/kg AKBA. Each formulation was delivered by 1 mL oral gavage via a pharyngeal tube such that each group of 4 rats received a different formulation. Each formulation was administered to dose AKBA at a concentration of 15 mg/l mL to prevent spontaneous release through the pyloric sphincter (volumetric dose below 4 mL/kg body weight).
The administered formulations were: […]
The catheters of the rats were flushed daily with 300 μL of 50 U/mL heparinized normal saline. Blood samples of approximately 300 μL were collected from the jugular vein catheter at 0, 0.5, 1, 1.5, 2, 2.5, 3, 3.5, 4, 4.5, 5, 5.5, 6 and 8 hours after dosing using a 1 mL syringe and attached […] needle. Blood was slowly extracted into the needle through the catheter. The blood samples were placed into preheparinized 1.5 mL microcentrifuge tubes. Withdrawn blood was replaced with equal volumes of heparinized saline by injecting through the jugular vein catheter. The bioavailability of the API was then determined by monitoring the API levels in the blood over time.

## CC(=O)O[C@@H]1CC[C@@]2(C)[C@@H](CC[C@]3(C)[C@@H]2C(=O)C=C2[C@@H]4[C@@H](C)[C@H](C)CC[C@]4(C)CC[C@]23C)[C@@]1(C)C(=O)O [AKBA, acetyl-11-keto-β-boswellic acid]
[1]
  AKBA solubility, mcg/mL Buffer (Material - Surfactants): 0.01 µg/mL
[2]
  AKBA solubility, mcg/mL Buffer (Material - Polymer Carriers): 7.27 µg/mL
[3]
  AKBA solubility, mcg/mL Buffer (Material - Combination of Surfactants and Polymer Carriers): 8.46 µg/mL
[4]
  peak solubility: about 2 μg/ml
[5]
  Average of AUC: 0.71* ± 0.24 μg-hr/mL
  Average of Cmax: 0.35* ± 0.12 μg/mL
  Average of Tmax: 4.75* ± 1.55 hours
  Average of t1/2: 2.30 ± 1.43 h
